Results: ChEMBL document CHEMBL5696442, “Discovery of type II inhibitors of TGFβ-activated kinase 1 (TAK1) and mitogen-activated protein kinase kinase kinase kinase 2 (MAP4K2)” (J Med Chem, 2015)
The source made the active and inactive calls. The rule behind the calls is not given here.

Columns and labels:
[1] = target: Ribosomal protein S6 kinase alpha-4 (Homo sapiens) (UniProt O75676); test: Inhibition of MSK2 domain1 Lys2 labeling site in human A-375 cells at 5 uM by KiNativ Profiling analysis relative to control; format: cell-based
[2] = target: Serine/threonine-protein kinase 4 (Homo sapiens) (UniProt Q13043); test: Inhibition of MST1 Lys1 labeling site harbouring AIHKETGQIVAIKQVPVESDLQEIIK in human A-375 cells at 5 uM by KiNativ Profiling analysis relative to control
Sequence of Serine/threonine-protein kinase 4 (Homo sapiens) (Q13043 whole entry, looked up): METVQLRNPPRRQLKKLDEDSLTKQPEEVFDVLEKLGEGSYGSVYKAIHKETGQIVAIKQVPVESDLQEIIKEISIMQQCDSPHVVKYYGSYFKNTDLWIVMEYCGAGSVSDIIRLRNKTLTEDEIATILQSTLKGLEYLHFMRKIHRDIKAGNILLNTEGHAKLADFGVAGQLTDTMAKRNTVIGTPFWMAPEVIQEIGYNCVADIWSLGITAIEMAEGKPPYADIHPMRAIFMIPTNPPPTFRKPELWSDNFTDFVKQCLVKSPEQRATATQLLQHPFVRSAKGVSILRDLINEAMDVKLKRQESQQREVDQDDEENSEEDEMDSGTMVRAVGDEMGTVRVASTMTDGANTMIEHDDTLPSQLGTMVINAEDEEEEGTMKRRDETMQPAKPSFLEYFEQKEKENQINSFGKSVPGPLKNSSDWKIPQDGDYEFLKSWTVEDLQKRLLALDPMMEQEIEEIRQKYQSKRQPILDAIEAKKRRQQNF

[3] = target: AP2-associated protein kinase 1 (Homo sapiens) (UniProt Q2M2I8); test: Inhibition of AAK1 (unknown origin) at 10 uM by Ambit Kinomescan binding assay
Sequence of AP2-associated protein kinase 1 (Homo sapiens) (Q2M2I8 whole entry, looked up): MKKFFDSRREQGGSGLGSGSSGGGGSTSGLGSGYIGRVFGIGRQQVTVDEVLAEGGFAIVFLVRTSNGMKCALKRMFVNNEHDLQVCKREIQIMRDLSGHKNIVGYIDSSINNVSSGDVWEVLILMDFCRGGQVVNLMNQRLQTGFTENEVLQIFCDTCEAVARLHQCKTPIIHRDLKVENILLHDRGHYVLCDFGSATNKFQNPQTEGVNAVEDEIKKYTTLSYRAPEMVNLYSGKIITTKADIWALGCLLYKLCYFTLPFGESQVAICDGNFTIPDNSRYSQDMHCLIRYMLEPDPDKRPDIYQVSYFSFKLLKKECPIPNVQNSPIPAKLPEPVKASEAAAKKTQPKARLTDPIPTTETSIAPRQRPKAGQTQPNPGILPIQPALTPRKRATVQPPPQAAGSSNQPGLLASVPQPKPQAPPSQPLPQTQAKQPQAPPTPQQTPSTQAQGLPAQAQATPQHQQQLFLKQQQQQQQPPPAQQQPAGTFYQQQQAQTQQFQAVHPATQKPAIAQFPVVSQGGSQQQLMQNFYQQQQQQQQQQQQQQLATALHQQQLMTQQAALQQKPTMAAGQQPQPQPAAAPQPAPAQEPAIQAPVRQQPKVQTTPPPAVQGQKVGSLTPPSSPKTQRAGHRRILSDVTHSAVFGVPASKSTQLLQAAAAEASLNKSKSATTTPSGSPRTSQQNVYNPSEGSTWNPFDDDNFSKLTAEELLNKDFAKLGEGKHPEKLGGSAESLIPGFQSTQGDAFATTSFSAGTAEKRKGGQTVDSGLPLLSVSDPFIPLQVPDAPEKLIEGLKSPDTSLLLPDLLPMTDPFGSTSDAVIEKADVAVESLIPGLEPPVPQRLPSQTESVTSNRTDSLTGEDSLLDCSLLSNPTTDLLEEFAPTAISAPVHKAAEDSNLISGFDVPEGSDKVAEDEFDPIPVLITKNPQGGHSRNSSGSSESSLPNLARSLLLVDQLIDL

[4] = target: Death-associated protein kinase 1 (Homo sapiens) (UniProt P53355); test: Inhibition of DAPK1 (unknown origin) at 10 uM by Ambit Kinomescan binding assay
[5] = target: Tyrosine-protein kinase receptor TYRO3 (Homo sapiens) (UniProt Q06418); test: Inhibition of TYRO3 (unknown origin) at 10 uM by Ambit Kinomescan binding assay
[6] = target: 1-phosphatidylinositol 3-phosphate 5-kinase (Homo sapiens) (UniProt Q9Y2I7); test: Inhibition of PIP5K3 ATP labeling site in human Huh-7 cells at 10 uM by KiNativ Profiling analysis relative to control; format: cell-based
Sequence of 1-phosphatidylinositol 3-phosphate 5-kinase (Homo sapiens) (Q9Y2I7 whole entry): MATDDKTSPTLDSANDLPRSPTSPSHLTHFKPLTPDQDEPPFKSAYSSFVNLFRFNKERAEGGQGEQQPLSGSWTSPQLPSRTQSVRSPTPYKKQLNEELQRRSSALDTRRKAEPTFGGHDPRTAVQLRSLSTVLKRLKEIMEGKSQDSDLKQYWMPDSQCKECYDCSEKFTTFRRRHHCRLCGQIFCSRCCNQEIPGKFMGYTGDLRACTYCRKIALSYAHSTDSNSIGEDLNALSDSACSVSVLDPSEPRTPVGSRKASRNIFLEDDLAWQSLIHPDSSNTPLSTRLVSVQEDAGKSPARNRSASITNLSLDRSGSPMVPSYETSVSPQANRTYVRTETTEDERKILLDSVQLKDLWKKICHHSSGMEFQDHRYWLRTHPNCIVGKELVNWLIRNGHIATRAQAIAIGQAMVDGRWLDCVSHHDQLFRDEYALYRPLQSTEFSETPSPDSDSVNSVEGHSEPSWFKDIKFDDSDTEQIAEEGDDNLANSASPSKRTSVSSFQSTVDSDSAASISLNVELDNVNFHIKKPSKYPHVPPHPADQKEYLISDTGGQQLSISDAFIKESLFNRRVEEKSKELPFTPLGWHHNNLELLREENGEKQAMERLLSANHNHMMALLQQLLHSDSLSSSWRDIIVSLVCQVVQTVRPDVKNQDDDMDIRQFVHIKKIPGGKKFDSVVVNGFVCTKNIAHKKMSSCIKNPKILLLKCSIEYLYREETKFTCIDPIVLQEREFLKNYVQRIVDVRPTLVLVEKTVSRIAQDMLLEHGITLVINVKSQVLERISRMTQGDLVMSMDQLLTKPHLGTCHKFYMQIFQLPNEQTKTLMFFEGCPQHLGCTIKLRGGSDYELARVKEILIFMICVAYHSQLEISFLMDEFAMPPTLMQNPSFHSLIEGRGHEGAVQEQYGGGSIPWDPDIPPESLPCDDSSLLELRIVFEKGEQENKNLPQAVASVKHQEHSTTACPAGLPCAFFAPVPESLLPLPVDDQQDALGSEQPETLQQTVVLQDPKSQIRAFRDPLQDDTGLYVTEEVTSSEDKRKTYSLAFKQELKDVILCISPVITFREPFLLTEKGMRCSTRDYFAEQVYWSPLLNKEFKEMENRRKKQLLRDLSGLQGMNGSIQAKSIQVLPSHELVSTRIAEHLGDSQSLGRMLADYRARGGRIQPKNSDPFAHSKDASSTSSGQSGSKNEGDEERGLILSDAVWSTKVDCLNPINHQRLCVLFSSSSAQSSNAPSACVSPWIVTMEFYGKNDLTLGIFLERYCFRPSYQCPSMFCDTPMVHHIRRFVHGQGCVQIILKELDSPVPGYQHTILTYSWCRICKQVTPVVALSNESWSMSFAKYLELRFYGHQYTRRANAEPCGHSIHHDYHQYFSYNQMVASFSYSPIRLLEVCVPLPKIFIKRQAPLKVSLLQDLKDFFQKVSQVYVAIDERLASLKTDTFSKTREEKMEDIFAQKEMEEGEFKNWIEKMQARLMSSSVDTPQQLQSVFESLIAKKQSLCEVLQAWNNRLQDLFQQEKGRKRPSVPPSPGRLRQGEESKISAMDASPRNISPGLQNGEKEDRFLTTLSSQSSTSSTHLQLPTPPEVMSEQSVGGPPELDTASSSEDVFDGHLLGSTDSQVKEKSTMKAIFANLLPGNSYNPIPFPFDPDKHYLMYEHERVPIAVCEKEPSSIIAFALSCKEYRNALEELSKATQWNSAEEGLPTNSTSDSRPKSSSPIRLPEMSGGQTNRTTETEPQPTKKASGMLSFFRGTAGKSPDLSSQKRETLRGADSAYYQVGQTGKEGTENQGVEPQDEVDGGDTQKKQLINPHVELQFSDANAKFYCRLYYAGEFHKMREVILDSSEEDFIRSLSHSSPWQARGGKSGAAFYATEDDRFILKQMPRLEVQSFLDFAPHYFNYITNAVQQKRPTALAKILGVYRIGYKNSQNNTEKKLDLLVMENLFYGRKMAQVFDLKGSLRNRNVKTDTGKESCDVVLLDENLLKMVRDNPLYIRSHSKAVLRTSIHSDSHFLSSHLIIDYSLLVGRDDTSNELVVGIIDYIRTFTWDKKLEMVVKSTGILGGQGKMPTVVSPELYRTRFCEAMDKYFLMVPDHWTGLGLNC

[7] = target: T1, Serine/threonine-protein kinase Nek1 (Homo sapiens) (UniProt Q96PY6); test: Inhibition of NEK1 K2 labeling site in human Huh-7 cells at 1 uM by KiNativ Profiling analysis relative to control; format: cell-based
T1 sequence (whole entry): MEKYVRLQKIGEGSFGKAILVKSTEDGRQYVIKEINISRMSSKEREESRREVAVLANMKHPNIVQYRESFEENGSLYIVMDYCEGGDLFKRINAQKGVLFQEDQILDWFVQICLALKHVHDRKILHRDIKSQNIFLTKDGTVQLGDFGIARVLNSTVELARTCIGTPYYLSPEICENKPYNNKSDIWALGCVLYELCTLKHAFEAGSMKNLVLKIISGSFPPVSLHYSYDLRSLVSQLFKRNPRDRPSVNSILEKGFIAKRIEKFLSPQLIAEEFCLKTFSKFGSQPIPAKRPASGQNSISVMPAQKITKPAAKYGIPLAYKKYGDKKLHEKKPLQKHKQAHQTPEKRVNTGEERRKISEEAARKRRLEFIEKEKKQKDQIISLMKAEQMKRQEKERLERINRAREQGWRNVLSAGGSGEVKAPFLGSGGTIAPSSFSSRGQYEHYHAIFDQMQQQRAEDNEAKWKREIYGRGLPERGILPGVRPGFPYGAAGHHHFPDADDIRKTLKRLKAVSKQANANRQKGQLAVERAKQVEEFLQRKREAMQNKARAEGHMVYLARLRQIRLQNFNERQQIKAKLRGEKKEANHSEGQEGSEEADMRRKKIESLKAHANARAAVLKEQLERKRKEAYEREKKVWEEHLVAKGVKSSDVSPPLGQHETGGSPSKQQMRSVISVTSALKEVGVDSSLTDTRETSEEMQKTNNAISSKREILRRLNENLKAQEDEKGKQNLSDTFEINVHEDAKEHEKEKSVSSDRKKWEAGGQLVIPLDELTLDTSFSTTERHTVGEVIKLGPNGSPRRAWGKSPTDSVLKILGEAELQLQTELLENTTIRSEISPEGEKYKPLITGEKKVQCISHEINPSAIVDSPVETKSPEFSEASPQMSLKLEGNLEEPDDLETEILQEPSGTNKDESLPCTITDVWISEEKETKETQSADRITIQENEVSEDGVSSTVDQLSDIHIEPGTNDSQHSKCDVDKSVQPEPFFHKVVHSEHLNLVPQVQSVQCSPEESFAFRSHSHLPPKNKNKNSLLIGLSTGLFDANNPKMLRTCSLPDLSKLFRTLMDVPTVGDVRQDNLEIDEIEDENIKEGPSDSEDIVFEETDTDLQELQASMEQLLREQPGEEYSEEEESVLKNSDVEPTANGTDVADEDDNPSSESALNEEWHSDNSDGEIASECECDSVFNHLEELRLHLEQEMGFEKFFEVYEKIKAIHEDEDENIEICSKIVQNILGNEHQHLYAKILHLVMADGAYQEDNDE

[8] = target: Mitogen-activated protein kinase kinase kinase kinase 1 (Homo sapiens) (UniProt Q92918); test: Inhibition of HPK1 (unknown origin) at 10 uM by Ambit Kinomescan binding assay relative to control; values are per cent of control
Sequence of Mitogen-activated protein kinase kinase kinase kinase 1 (Homo sapiens) (Q92918 whole entry, looked up): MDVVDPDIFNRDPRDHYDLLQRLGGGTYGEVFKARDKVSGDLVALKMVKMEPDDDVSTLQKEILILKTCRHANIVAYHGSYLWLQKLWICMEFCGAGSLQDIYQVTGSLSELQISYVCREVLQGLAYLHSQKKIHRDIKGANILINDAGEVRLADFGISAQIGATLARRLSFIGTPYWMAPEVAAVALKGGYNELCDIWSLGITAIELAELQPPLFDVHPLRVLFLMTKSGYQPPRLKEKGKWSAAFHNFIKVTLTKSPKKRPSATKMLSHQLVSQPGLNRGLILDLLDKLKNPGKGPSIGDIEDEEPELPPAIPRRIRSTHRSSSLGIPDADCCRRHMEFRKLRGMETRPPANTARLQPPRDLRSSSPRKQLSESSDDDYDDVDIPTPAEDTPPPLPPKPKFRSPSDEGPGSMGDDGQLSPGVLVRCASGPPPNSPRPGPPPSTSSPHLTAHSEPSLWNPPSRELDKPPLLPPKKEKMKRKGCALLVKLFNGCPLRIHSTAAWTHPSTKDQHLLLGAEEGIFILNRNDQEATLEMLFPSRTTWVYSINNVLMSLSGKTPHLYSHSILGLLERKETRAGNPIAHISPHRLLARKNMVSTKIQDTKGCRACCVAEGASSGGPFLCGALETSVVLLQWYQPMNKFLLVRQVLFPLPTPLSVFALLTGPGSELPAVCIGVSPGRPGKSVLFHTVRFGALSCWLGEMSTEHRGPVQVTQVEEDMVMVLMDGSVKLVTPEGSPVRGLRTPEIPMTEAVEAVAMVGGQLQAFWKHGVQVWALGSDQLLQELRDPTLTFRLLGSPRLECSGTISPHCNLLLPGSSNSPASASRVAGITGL

[9] = target: Non-receptor tyrosine-protein kinase TNK1 (Homo sapiens) (UniProt Q13470); test: Inhibition of TNK1 (unknown origin) at 10 uM by Ambit Kinomescan binding assay relative to control; values are per cent of control
Sequence of Non-receptor tyrosine-protein kinase TNK1 (Homo sapiens) (Q13470 whole entry): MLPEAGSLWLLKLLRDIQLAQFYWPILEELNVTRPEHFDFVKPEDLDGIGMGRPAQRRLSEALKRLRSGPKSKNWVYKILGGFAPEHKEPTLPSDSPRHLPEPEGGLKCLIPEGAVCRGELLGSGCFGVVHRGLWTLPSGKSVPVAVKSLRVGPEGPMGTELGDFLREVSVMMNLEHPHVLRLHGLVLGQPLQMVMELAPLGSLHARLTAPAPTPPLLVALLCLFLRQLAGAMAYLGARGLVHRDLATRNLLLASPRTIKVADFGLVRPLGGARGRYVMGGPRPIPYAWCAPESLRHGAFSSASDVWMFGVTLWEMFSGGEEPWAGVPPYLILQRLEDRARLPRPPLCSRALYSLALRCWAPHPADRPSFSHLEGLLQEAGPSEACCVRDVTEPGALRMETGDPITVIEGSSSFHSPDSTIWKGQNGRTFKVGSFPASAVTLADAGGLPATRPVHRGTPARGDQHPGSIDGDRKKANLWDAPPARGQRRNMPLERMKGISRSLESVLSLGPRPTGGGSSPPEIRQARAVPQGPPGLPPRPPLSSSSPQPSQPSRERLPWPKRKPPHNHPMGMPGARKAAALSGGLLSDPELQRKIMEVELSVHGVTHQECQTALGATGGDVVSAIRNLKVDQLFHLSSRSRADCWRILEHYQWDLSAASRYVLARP

[10] = target: T2, Serine/threonine-protein kinase Chk1 (Homo sapiens) (UniProt O14757); test: Inhibition of CHK1 Lys2 labeling site in human Huh-7 cell lysate at 1 uM by KiNativ Profiling analysis relative to control; format: subcellular
T2 sequence (whole entry): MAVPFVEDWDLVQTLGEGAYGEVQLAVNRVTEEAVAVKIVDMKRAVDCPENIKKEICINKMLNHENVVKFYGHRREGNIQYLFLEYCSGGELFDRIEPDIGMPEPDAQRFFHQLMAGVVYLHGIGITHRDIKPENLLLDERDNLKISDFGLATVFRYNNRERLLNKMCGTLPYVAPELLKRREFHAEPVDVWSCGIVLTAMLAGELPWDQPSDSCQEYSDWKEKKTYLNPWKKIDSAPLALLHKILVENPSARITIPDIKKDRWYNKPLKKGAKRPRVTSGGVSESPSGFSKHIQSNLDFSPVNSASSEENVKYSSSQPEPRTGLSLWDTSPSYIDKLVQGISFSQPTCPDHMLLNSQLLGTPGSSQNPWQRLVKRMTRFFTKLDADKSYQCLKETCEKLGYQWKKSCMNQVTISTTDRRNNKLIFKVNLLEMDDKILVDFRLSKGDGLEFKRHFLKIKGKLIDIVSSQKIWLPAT

[11] = target: T3, Dual specificity mitogen-activated protein kinase kinase 6 (Homo sapiens) (UniProt P52564); test: Inhibition of MAP2K6 ACT labeling site in human Huh-7 cell lysate at 1 uM by KiNativ Profiling analysis relative to control; format: subcellular
T3 sequence (whole entry): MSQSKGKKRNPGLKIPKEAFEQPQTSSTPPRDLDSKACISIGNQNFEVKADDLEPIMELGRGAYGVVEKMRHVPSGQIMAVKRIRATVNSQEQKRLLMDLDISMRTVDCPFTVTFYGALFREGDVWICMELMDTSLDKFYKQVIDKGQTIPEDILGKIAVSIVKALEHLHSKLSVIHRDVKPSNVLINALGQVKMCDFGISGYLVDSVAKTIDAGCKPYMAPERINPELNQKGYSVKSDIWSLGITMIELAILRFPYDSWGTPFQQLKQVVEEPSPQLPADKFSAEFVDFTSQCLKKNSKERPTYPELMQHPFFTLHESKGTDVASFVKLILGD

## CCN1CCN(Cc2ccc(NC(=O)c3ccc(C)c(/C=C/c4cnc5[nH]ccc5c4OC)c3)cc2C(F)(F)F)CC1
[1]
  inhibition: 9%
[2]
  inhibition: 16.1%

## CCN1CCN(Cc2ccc(NC(=O)c3ccc(C)c(Oc4ccnc5[nH]ccc45)c3)cc2C(F)(F)F)CC1
[3]
  inhibition: inactive
[4]
  inhibition: inactive
[5]
  inhibition: inactive
[6]
  inhibition: 13.8%
[7]
  inhibition: -5.8%
[8]
  % of control: 1.6%
[9]
  residual activity: 0.35%

## CNc1cc(Oc2cc(C(=O)Nc3cc(N4CCN(C)CC4)cc(C(F)(F)F)c3)ccc2C)ncn1
[10]
  inhibition: -1.1%
[11]
  inhibition: -1.2%
